The test system of this assay is P388 leukemia ip, CD2F1 mice, survival T/C. The experiment in a line: NCI In Vivo Anticancer Drug Screen. Data for tumor model P388 Leukemia (intraperitoneal) in CD2F1 (CDF1) mice. The conditions noted are these: endpoint: median survival time, higher = longer survival. An outline of the steps:
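Mice carrying the transplanted tumor received test compound or vehicle. Survival was recorded in each group, and the value is the treated-group measurement divided by that of the vehicle-treated control group.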

Where [1] appears, read: dose: 50.0 mg/kg/injection, schedule: Q01DX009 (ip), vehicle: Klucel (hydroxypropylcellulose) (HPC).
Where [2] appears, read: dose: 100.0 mg/kg/injection, schedule: Q01DX009 (ip), vehicle: Klucel (hydroxypropylcellulose) (HPC).
Setting [3] is: dose: 200.0 mg/kg/injection, schedule: Q01DX009 (ip), vehicle: Klucel (hydroxypropylcellulose) (HPC).
The mark [4] stands for this setting: dose: 50.0 mg/kg/injection, schedule: Q01DX005 (ip), vehicle: Klucel (hydroxypropylcellulose) (HPC).
Where [5] appears, read: dose: 100.0 mg/kg/injection, schedule: Q01DX005 (ip), vehicle: Klucel (hydroxypropylcellulose) (HPC).
[6] abbreviates: dose: 200.0 mg/kg/injection, schedule: Q01DX005 (ip), vehicle: Klucel (hydroxypropylcellulose) (HPC).
Where [7] appears, read: dose: 12.5 mg/kg/injection, schedule: Q01DX009 (ip), vehicle: saline with Tween-80.
Where [8] appears, read: dose: 25.0 mg/kg/injection, schedule: Q01DX009 (ip), vehicle: Klucel (hydroxypropylcellulose) (HPC).
[9] abbreviates: dose: 25.0 mg/kg/injection, schedule: Q01DX009 (ip), vehicle: saline with Tween-80.
[10] abbreviates: dose: 50.0 mg/kg/injection, schedule: Q01DX009 (ip), vehicle: saline with Tween-80.
Where [11] appears, read: dose: 100.0 mg/kg/injection, schedule: Q01DX009 (ip), vehicle: saline with Tween-80.
The mark [12] stands for this setting: dose: 200.0 mg/kg/injection, schedule: Q01DX009 (ip), vehicle: saline with Tween-80.
Setting [13] is: dose: 100.0 mg/kg/injection, schedule: Q04DX002 (ip), vehicle: saline.
The mark [14] stands for this setting: dose: 200.0 mg/kg/injection, schedule: Q04DX002 (ip), vehicle: saline.
Where [15] appears, read: dose: 400.0 mg/kg/injection, schedule: Q04DX002 (ip), vehicle: saline.
Where [16] appears, read: dose: 12.5 mg/kg/injection, schedule: Q01DX009 (ip), vehicle: Klucel (hydroxypropylcellulose) (HPC).
The mark [17] stands for this setting: dose: 50.0 mg/kg/injection, schedule: Q01DX005 (ip), vehicle: saline with Tween-80.
Where [18] appears, read: dose: 100.0 mg/kg/injection, schedule: Q01DX005 (ip), vehicle: saline with Tween-80.
The mark [19] stands for this setting: dose: 200.0 mg/kg/injection, schedule: Q01DX005 (ip), vehicle: saline with Tween-80.
Where [20] appears, read: dose: 60.0 mg/kg/injection, schedule: Q01DX005 (ip), vehicle: saline with Tween-80.
Setting [21] is: dose: 120.0 mg/kg/injection, schedule: Q01DX005 (ip), vehicle: saline with Tween-80.
Setting [22] is: dose: 240.0 mg/kg/injection, schedule: Q01DX005 (ip), vehicle: saline with Tween-80.

“And” between values parts separate entries of the source, which are not always exact repeats. Equal values may be shown once. Toxic doses and inconclusive results are not listed. Numbered stars: 1 amine (or outer) side, 2 acyl side, 3 side chain; on linkers, the order of the positions; unused ones are H or OH. Peptide text beside a SMILES is read from it. ξ: configuration not given here. ξγGlu = O=C(O)C(CCC(=O)[*:2])N[*:1]

As for `O=C(c1ccccc1)C(c1ccccc1)n1nc2c(c1-c1ccccc1)CCCC2` (centres undefined), the T/C was 98 % of control under setting [1], 91 % of control under setting [2] and 97 % of control under setting [3].

As to `CNC(=O)Nc1cc2ccccc2o1`, the T/C is 110 % of control (dose: 100.0 mg/kg/injection, schedule: Q04DX003 (ip), vehicle: saline with Tween-80); 100 % of control (dose: 200.0 mg/kg/injection, schedule: Q04DX003 (ip), vehicle: saline with Tween-80); 105 % of control (dose: 400.0 mg/kg/injection, schedule: Q04DX003 (ip), vehicle: saline with Tween-80).

On to `NC(CCC(=O)NCC(=O)NCC(=O)O)C(=O)O` (stereo not drawn) (ξγGlu-Gly-Gly-OH), for which the T/C reads like this: (dose: 50.0 mg/kg/injection, schedule: Q01DX005 (ip), vehicle: saline) 100 % of control; (dose: 100.0 mg/kg/injection, schedule: Q01DX005 (ip), vehicle: saline) 97 % of control; (dose: 200.0 mg/kg/injection, schedule: Q01DX005 (ip), vehicle: saline) 102 % of control.

As for `O=C(Nc1cc(Cl)cc(Cl)c1)OC1CC2CC1C1CC3OC3C21` (centres undefined), the T/C under setting [4] is 94 % of control, the T/C under setting [5] was 99 % of control and the T/C under setting [6] was 92 % of control.

Regarding `ClC(Cl)=C(Cl)Cl`, the T/C under setting [7] was 102 % of control and 107 % of control; the T/C under setting [8] is 100 % of control and 109 % of control; the T/C under setting [9] was 107 % of control and 114 % of control; the T/C under setting [1] was 98 % of control and 103 % of control; the T/C under setting [10] was 105 % of control and 112 % of control; the T/C under setting [2] is 100 % of control and 107 % of control. In addition, the T/C was 108 % of control and 112 % of control under setting [11]; 100 % of control under setting [3]; 107 % of control and 110 % of control under setting [12]; 104 % of control and 106 % of control (dose: 300.0 mg/kg/injection, schedule: Q01DX009 (ip), vehicle: Klucel (hydroxypropylcellulose) (HPC)).

For the compound `CC1C(c2ccccc2)=Nn2c(=O)n(-c3ccccc3)c(=O)n21` (centres undefined), the T/C reads like this: (dose: 25.0 mg/kg/injection, schedule: Q01DX009 (ip), vehicle: other) 90 % of control; (dose: 50.0 mg/kg/injection, schedule: Q01DX009 (ip), vehicle: other) 91 % of control; (dose: 100.0 mg/kg/injection, schedule: Q01DX009 (ip), vehicle: other) 91 % of control; (dose: 200.0 mg/kg/injection, schedule: Q01DX009 (ip), vehicle: other) 89 % of control; (dose: 400.0 mg/kg/injection, schedule: Q01DX009 (ip), vehicle: other) 86 % of control.

Take `CC(=O)Oc1ccc(OCc2ccccc2)c(OCc2ccccc2)c1`: the T/C is 102 % of control under setting [10], 99 % of control under setting [11] and 107 % of control under setting [12].

Regarding `CCN1C=C/C(=C\C=C/c2cc[n+](CC)c3ccccc23)c2ccccc21`, the T/C is, setting by setting: (dose: 0.15 mg/kg/injection, schedule: Q04DX003 (ip), vehicle: saline) 118 % of control; (dose: 0.22 mg/kg/injection, schedule: Q04DX003 (ip), vehicle: saline) 118 % of control; (dose: 0.33 mg/kg/injection, schedule: Q04DX003 (ip), vehicle: saline) 122 % of control.

With `CCc1ccccc1C1(Br)C(=O)c2ccccc2C1=O`, the T/C is, setting by setting: under setting [13], 102 % of control; under setting [14], 100 % of control; under setting [15], 101 % of control.

Take `CNC(=O)OCc1c(COC(=O)NC)c(-c2cc(F)ccc2F)n2c1CCC2`: the T/C runs as follows: (dose: 12.5 mg/kg/injection, schedule: Q01DX009 (ip), vehicle: distilled water + Tween-80) 151 % of control; (dose: 25.0 mg/kg/injection, schedule: Q01DX009 (ip), vehicle: distilled water + Tween-80) 155 % of control and 156 % of control.

Turning to `Nc1ccn(COC(CO)CO)c(=O)n1`, the T/C runs as follows: under setting [13], 97 % of control; under setting [14], 98 % of control; under setting [15], 103 % of control.

Regarding `CNC(=O)C1CCCN1C(=O)C(Cl)Cl` (centres undefined), the T/C is 96 % of control (dose: 50.0 mg/kg/injection, schedule: Q01DX009 (ip), vehicle: saline); 93 % of control and 96 % of control (dose: 100.0 mg/kg/injection, schedule: Q01DX009 (ip), vehicle: saline); 86 % of control and 92 % of control (dose: 200.0 mg/kg/injection, schedule: Q01DX009 (ip), vehicle: saline).

Regarding `CCOC(=O)c1cnc(Sc2c([N+](=O)[O-])ncn2C)nc1N`, the T/C is 89 % of control under setting [16]; 92 % of control under setting [8]; 86 % of control and 91 % of control under setting [1].

Regarding `Fc1ccc2[nH]c3ncccc3c2c1`, the T/C by setting is: under setting [17], 106 % of control; under setting [18], 105 % of control; under setting [19], 100 % of control.

For the compound `CCCCCCCCCCCC(=O)OOC(C)(C)C`, the T/C runs as follows: under setting [20], 100 % of control; under setting [21], 102 % of control; under setting [22], 97 % of control.

With `COc1ccc(C(=O)/C=C/c2ccc3c(c2)OCO3)c(OCc2ccccc2)c1`, the T/C runs as follows: (dose: 3.75 mg/kg/injection, schedule: Q01DX009 (ip), vehicle: Klucel (hydroxypropylcellulose) (HPC)) 98 % of control; (dose: 7.5 mg/kg/injection, schedule: Q01DX009 (ip), vehicle: Klucel (hydroxypropylcellulose) (HPC)) 99 % of control; (dose: 15.0 mg/kg/injection, schedule: Q01DX009 (ip), vehicle: Klucel (hydroxypropylcellulose) (HPC)) 98 % of control; (dose: 30.0 mg/kg/injection, schedule: Q01DX009 (ip), vehicle: Klucel (hydroxypropylcellulose) (HPC)) 94 % of control.

Consider `Nc1nc(CCl)nc(Nc2ccccc2)n1`, for which the T/C is 101 % of control under setting [16], 101 % of control under setting [8], 101 % of control under setting [1] and 99 % of control under setting [2].

Take `O=C(OCC(Cl)(Cl)Cl)N1C2C3OC3C(C3OC32)N1C(=O)OCC(Cl)(Cl)Cl` (centres undefined): the T/C is, setting by setting: (dose: 50.0 mg/kg/injection, schedule: Q01DX009 (ip), vehicle: suspension in saline) 99 % of control; (dose: 100.0 mg/kg/injection, schedule: Q01DX009 (ip), vehicle: suspension in saline) 92 % of control; (dose: 200.0 mg/kg/injection, schedule: Q01DX009 (ip), vehicle: suspension in saline) 94 % of control.

`CC(C)CC1NC(=O)C(CC(C)C)N(CO)C1=O` (centres undefined): the T/C reads like this: under setting [4], 97 % of control; under setting [5], 99 % of control; under setting [6], 95 % of control.

With `NNP(=O)(Oc1ccccc1)Oc1ccccc1`, the T/C is 110 % of control (dose: 3.12 mg/kg/injection, schedule: Q01DX009 (ip), vehicle: saline with Tween-80); 101 % of control (dose: 6.25 mg/kg/injection, schedule: Q01DX009 (ip), vehicle: saline with Tween-80); 106 % of control under setting [7]; 109 % of control and 110 % of control under setting [9].

`CC(NC(=O)C1CCCN1C(=O)OC(C)(C)C)C(=O)OCc1ccccc1` (centres undefined): the T/C by setting is: (dose: 50.0 mg/kg/injection, schedule: Q01DX005 (ip), vehicle: saline + Tween-80 + alcohol) 98 % of control; (dose: 100.0 mg/kg/injection, schedule: Q01DX005 (ip), vehicle: saline + Tween-80 + alcohol) 98 % of control; (dose: 200.0 mg/kg/injection, schedule: Q01DX005 (ip), vehicle: saline + Tween-80 + alcohol) 99 % of control.

On to `Cn1c(=O)cc2n(C)c3ccccc3n2c1=O`, for which the T/C is 96 % of control under setting [20], 100 % of control under setting [21] and 97 % of control under setting [22].

On to `Cc1cc(=O)oc2cc3oc4c(c3cc12)CCCC4`, for which the T/C reads like this: under setting [4], 97 % of control; under setting [5], 92 % of control; under setting [6], 88 % of control.

Consider `COCc1ccc2c(c1)C(O)NC(=O)O2` (centres undefined), for which the T/C under setting [17] is 102 % of control; the T/C under setting [18] is 107 % of control; the T/C under setting [19] was 109 % of control; the T/C (dose: 400.0 mg/kg/injection, schedule: Q01DX005 (ip), vehicle: saline with Tween-80) was 117 % of control.

Values taken from PubChem BioAssay AID330 (DTP/NCI, 2004).
